Patent US6537992B2, “Regulation of organic nitrate tolerance” (priority 2001, dated 2003)

Legend:
[1] = Forearm blood flow by strain gauge plethysmography at rest and in response to sublingual nitroglycerin; assay type: in vivo, human; settings: sublingual GTN 0.6 mg, before continuous GTN therapy, both groups
Experimental: (§1) Normal volunteers (n=20) were randomized in a double bind, placebo-controlled fashion to either oral folate (5 mg per day) or placebo. After 1 week of this double-blind therapy, subjects returned to the laboratory. At that time, measures of standing systolic blood pressure and heart rate were recorded. Subsequently, measurements of forearm blood flow were made at rest and in response to sublingual nitroglycerin (0.6 mg). […] A Randomized Double-blind, Placebo-controlled Study, J Cardiovasc Pharm. 1999;34:645-659.
(§2) Subsequently all subjects all received transdermal GTN (0.6 mg/hr). Standing heart rate and blood pressure responses were repeated 3 hours after initial patch application. Subjects were discharged from the laboratory with instructions to take transdermal GTN continuously for the next 5 to 7 days, changing the patch each day at 0800 hours. After 5 to 7 days, subjects returned to the laboratory where measures of standing systolic blood pressure and heart rate as well as forearm blood flow were repeated.

[2] = Standing systolic blood pressure and heart rate in normal volunteers during transdermal GTN, with oral folate or placebo; assay type: in vivo, human; settings: acute transdermal GTN 0.6 mg/hr, 3 hours after initial patch application, both placebo and folate groups
Experimental: as §1, §2

## O=[N+]([O-])OCC(CO[N+](=O)[O-])O[N+](=O)[O-] [GTN, glyceryl trinitrate]
[1]
  forearm blood flow after sublingual administration: similar, significant increase
[2]
  heart rate after acute administration: significant increase
  systolic blood pressure after acute administration: significant fall
